In BigSolDB 2.1:

## C=C(C)[C@@H]1CC[C@]2(CO)CC[C@]3(C)[C@H](CC[C@@H]4[C@@]5(C)CC[C@H](O)C(C)(C)[C@@H]5CC[C@]43C)[C@@H]12
In DMF, 293.2 K
  solubility (mole fraction): 0.00208
In DMF, 298.2 K
  solubility (mole fraction): 0.00244
In DMF, 303.2 K
  solubility (mole fraction): 0.00294
In DMF, 308.2 K
  solubility (mole fraction): 0.00334
In DMF, 313.2 K
  solubility (mole fraction): 0.00368
In DMF, 318.2 K
  solubility (mole fraction): 0.00426
In DMF, 323.2 K
  solubility (mole fraction): 0.00461
In DMF, 328.2 K
  solubility (mole fraction): 0.00518
In NMP, 293.2 K
  solubility (mole fraction): 0.00549
In NMP, 298.2 K
  solubility (mole fraction): 0.00569
In NMP, 303.2 K
  solubility (mole fraction): 0.0059
In NMP, 308.2 K
  solubility (mole fraction): 0.00615
In NMP, 313.2 K
  solubility (mole fraction): 0.00635
In NMP, 318.2 K
  solubility (mole fraction): 0.00653
In NMP, 323.2 K
  solubility (mole fraction): 0.00676
In NMP, 328.2 K
  solubility (mole fraction): 0.00697
In acetonitrile, 293.2 K
  solubility (mole fraction): 0.000269
In acetonitrile, 298.2 K
  solubility (mole fraction): 0.000473
In acetonitrile, 303.2 K
  solubility (mole fraction): 0.000697
In acetonitrile, 308.2 K
  solubility (mole fraction): 0.00104
In acetonitrile, 313.2 K
  solubility (mole fraction): 0.00137
In acetonitrile, 318.2 K
  solubility (mole fraction): 0.00193
In acetonitrile, 323.2 K
  solubility (mole fraction): 0.00244
In acetonitrile, 328.2 K
  solubility (mole fraction): 0.00341
In n-dodecane, 293.2 K
  solubility (mole fraction): 1.5e-05
In n-dodecane, 298.2 K
  solubility (mole fraction): 1.6e-05
In n-dodecane, 303.2 K
  solubility (mole fraction): 1.9e-05
In n-dodecane, 308.2 K
  solubility (mole fraction): 2.3e-05
In n-dodecane, 313.2 K
  solubility (mole fraction): 2.5e-05
In n-dodecane, 318.2 K
  solubility (mole fraction): 3e-05
In n-dodecane, 323.2 K
  solubility (mole fraction): 3.5e-05
In n-dodecane, 328.2 K
  solubility (mole fraction): 4.5e-05
In n-hexadecane, 293.2 K
  solubility (mole fraction): 4.6e-05
In n-hexadecane, 298.2 K
  solubility (mole fraction): 5.3e-05
In n-hexadecane, 303.2 K
  solubility (mole fraction): 5.7e-05
In n-hexadecane, 308.2 K
  solubility (mole fraction): 6.5e-05
In n-hexadecane, 313.2 K
  solubility (mole fraction): 7.6e-05
In n-hexadecane, 318.2 K
  solubility (mole fraction): 8.3e-05
In n-hexadecane, 323.2 K
  solubility (mole fraction): 9.8e-05
In n-hexadecane, 328.2 K
  solubility (mole fraction): 0.000117
In n-nonanol, 293.2 K
  solubility (mole fraction): 0.00217
In n-nonanol, 298.2 K
  solubility (mole fraction): 0.00234
In n-nonanol, 303.2 K
  solubility (mole fraction): 0.00254
In n-nonanol, 308.2 K
  solubility (mole fraction): 0.00292
In n-nonanol, 313.2 K
  solubility (mole fraction): 0.00324
In n-nonanol, 318.2 K
  solubility (mole fraction): 0.00371
In n-nonanol, 323.2 K
  solubility (mole fraction): 0.00431
In n-nonanol, 328.2 K
  solubility (mole fraction): 0.0051
In n-octanol, 293.2 K
  solubility (mole fraction): 0.0016
In n-octanol, 298.2 K
  solubility (mole fraction): 0.00162
In n-octanol, 303.2 K
  solubility (mole fraction): 0.00179
In n-octanol, 308.2 K
  solubility (mole fraction): 0.00186
In n-octanol, 313.2 K
  solubility (mole fraction): 0.00209
In n-octanol, 318.2 K
  solubility (mole fraction): 0.00229
In n-octanol, 323.2 K
  solubility (mole fraction): 0.00269
In n-octanol, 328.2 K
  solubility (mole fraction): 0.00341
In n-pentanol, 293.2 K
  solubility (mole fraction): 0.000894
In n-pentanol, 298.2 K
  solubility (mole fraction): 0.00096
In n-pentanol, 303.2 K
  solubility (mole fraction): 0.00108
In n-pentanol, 308.2 K
  solubility (mole fraction): 0.0012
In n-pentanol, 313.2 K
  solubility (mole fraction): 0.00132
In n-pentanol, 318.2 K
  solubility (mole fraction): 0.00149
In n-pentanol, 323.2 K
  solubility (mole fraction): 0.00175
In n-pentanol, 328.2 K
  solubility (mole fraction): 0.00198
In sec-butanol, 293.2 K
  solubility (mole fraction): 0.000701
In sec-butanol, 298.2 K
  solubility (mole fraction): 0.000728
In sec-butanol, 303.2 K
  solubility (mole fraction): 0.000813
In sec-butanol, 308.2 K
  solubility (mole fraction): 0.000845
In sec-butanol, 313.2 K
  solubility (mole fraction): 0.000941
In sec-butanol, 318.2 K
  solubility (mole fraction): 0.00108
In sec-butanol, 323.2 K
  solubility (mole fraction): 0.0012
In sec-butanol, 328.2 K
  solubility (mole fraction): 0.00148
In water, 293.2 K
  solubility (mole fraction): 4e-06
In water, 298.2 K
  solubility (mole fraction): 5e-06
In water, 303.2 K
  solubility (mole fraction): 6e-06
In water, 308.2 K
  solubility (mole fraction): 9e-06
In water, 313.2 K
  solubility (mole fraction): 1.4e-05
In water, 318.2 K
  solubility (mole fraction): 1.8e-05
In water, 323.2 K
  solubility (mole fraction): 2.5e-05
In water, 328.2 K
  solubility (mole fraction): 3.3e-05

## C[C@@H]1CC[C@@]2(OC1)O[C@H]1C[C@H]3[C@@H]4CC=C5C[C@@H](O)CC[C@]5(C)[C@H]4CC[C@]3(C)[C@H]1[C@@H]2C
In n-pentanol, 293.2 K
  solubility (mole fraction): 0.00462
In n-pentanol, 298.2 K
  solubility (mole fraction): 0.0051
In n-pentanol, 303.2 K
  solubility (mole fraction): 0.00621
In n-pentanol, 308.2 K
  solubility (mole fraction): 0.0075
In n-pentanol, 313.2 K
  solubility (mole fraction): 0.00866
In n-pentanol, 318.2 K
  solubility (mole fraction): 0.0102
In n-pentanol, 323.2 K
  solubility (mole fraction): 0.0122
In n-pentanol, 328.2 K
  solubility (mole fraction): 0.0148
